Data reported in patent publication US20160168126A1, “CHEMICAL COMPOUNDS” (SYNGENTA LIMITED, priority 2013, published 2016).

Test system: a variety of test species
Assay: Post-emergence herbicidal activity (glasshouse, sprayed 8 days after sowing, evaluated after 13 days)
Assay type: in vivo
Conditions: 1000 g/ha, scale 0-5
Protocol: Seeds of a variety of test species were sown in standard soil in pots. After 8 days cultivation (post-emergence) under controlled conditions in a glasshouse (at 24/16° C., day/night; 14 hours light; 65% humidity), the plants were sprayed with an aqueous spray solution derived from the formulation of the technical active ingredient in acetone/water (50:50) solution containing 0.5% Tween 20 (polyoxyethelyene sorbitan monolaurate, CAS RN 9005-64-5). The test plants were then grown in a glasshouse under controlled conditions (at 24/16° C., day/night; 14 hours light; 65% humidity) and watered twice daily. After 13 days, the test was evaluated (5=total damage to plant; 0=no damage to plant).

SMILES | Post-emergence herbicidal damage score, ABUTH (Abutilon theophrasti) | Post-emergence herbicidal damage score, ALOMY (Alopecurus myosuroides) | Post-emergence herbicidal damage score, AMARE (Amaranthus retroflexus) | Post-emergence herbicidal damage score, ECHCG (Echinochloa crus-galli) | Post-emergence herbicidal damage score, SETFA (Setaria faberi) | Post-emergence herbicidal damage score, ZEAMX (Zea mays)
C=CCC(C)(C)c1cc(N2C(=O)C(C)=C(Cl)C2O)nn1C (stereo not drawn) [Compound B6, 3-chloro-1-[5-(1,1-dimethylbut-3-enyl)-1-methyl-pyrazol-3-yl]-2-hydroxy-4-methyl-2H-pyrrol-5-one] | 5 | 5 | 5 | 5 | 5 | 2
CC(C)=Cc1cc(N2C(=O)C(C)=C(Cl)C2O)nn1C (stereo not drawn) [Compound B7, 3-chloro-2-hydroxy-4-methyl-1-[1-methyl-5-(2-methylprop-1-enyl)pyrazol-3-yl]-2H-pyrrol-5-one] | 4 | 0 | 3 | 1 | 5 | 2
CC1=C(Cl)C(O)N(c2cc(I)n(C)n2)C1=O (stereo not drawn) [Compound B8, 3-chloro-2-hydroxy-1-(5-iodo-1-methyl-pyrazol-3-yl)-4-methyl-2H-pyrrol-5-one] | 5 | 3 | 5 | 4 | 5 | 1
CC1=C(Cl)C(O)N(c2cc(Cl)n(C)n2)C1=O (stereo not drawn) [Compound B9] | 5 | 4 | 5 | 5 | 5 | 1
CC(C)=CCc1cc(N2C(=O)C(C)=C(Cl)C2O)nn1C (stereo not drawn) [Compound B10, 3-chloro-2-hydroxy-4-methyl-1-[1-methyl-5-(3-methylbut-2-enyl)pyrazol-3-yl]-2H-pyrrol-5-one] | 2 | 0 | 0 | 2 | 3 | 0
CC1=C(Cl)C(O)N(c2cc(/C=C/C(C)(C)C)n(C)n2)C1=O (stereo not drawn) [Compound B11] | 0 | 0 | 0 | 0 | 0 | 0
CC1=C(Cl)C(O)N(c2cc(CCC(C)C)n(C)n2)C1=O (stereo not drawn) [Compound B12] | 1 | 0 | 0 | 0 | 0 | 0
CSc1cc(N2C(=O)C(C)=C(Cl)C2O)nn1C (stereo not drawn) [Compound B17] | 4 | 2 | 3 | 4 | 5 | 1
CC1=C(Cl)C(O)N(c2nn(C)c3c2CCC3(C)C)C1=O (stereo not drawn) [Compound B18] | 5 | 4 | 5 | 5 | 5 | 4
CC1=C(Cl)C(O)N(c2cc(S(C)(=O)=O)n(C)n2)C1=O (stereo not drawn) [Compound B20] | 5 | 3 | 5 | 4 | 5 | 0
CC1=C(Cl)C(O)N(c2cc(C(C)(C)C#N)n(C)n2)C1=O (stereo not drawn) [Compound B23] | 4 | 3 | 5 | 5 | 4 | 1
C/C=C\c1cc(N2C(=O)C(C)=C(Cl)C2O)nn1C (stereo not drawn) [Compound B24] | 5 | 3 | 5 | 4 | 5 | 1
C=C(C)c1cc(N2C(=O)C(C)=C(Cl)C2O)nn1C (stereo not drawn) [Compound B25] | 5 | 4 | 5 | 5 | 5 | 2
CC1=C(Cl)C(O)N(c2cc([S+](C)[O-])n(C)n2)C1=O (stereo not drawn) [Compound B26] | 5 | 4 | 5 | 5 | 5 | 4
CC(C)=C(C)c1cc(N2C(=O)C(C)=C(Cl)C2O)nn1C (stereo not drawn) [Compound B27] | 4 | 1 | 1 | 0 | 3 | 0
CC1=C(Cl)C(O)N(c2nn(C)c3c2CCCCC3(C)C)C1=O (stereo not drawn) [Compound B28] | 4 | 2 | 4 | 3 | 3 | 1
CC1=C(Cl)C(O)N(c2nn(C)c3c2C2CCC3C2)C1=O (stereo not drawn) [Compound B29] | 5 | 4 | 5 | 5 | 5 | 3
